Results taken from patent publication US20190224343A1, “CLEAVABLE COATING MATERIAL HAVING MICROBIAL FUNCTIONALITY” (ORIGINAL G B.V., priority 2012, published 2019).

Tested on: Staphylococcus aureus (clinical isolate)
Assay: Fluorescence imaging of coated orthopaedic plates, screws and catheters implanted in a human cadaver ankle after incubation with S. aureus isolate or NaCl
Conditions: implants incubated with S. aureus, imaged 24 hours after implantation, excitation 710 nm, emission 800 nm
Excerpt: Orthopaedic plates, screws and catheters were coated with the polymer coating with compositions according to step (g). For example a polymer coating 1 g (i) was coated onto orthopaedic plates, screws and catheters in a continuous process.
First a solution of the polymer prepared in Example 1 g (i) was made by dissolving the polymer coating in water and then the plate and catheter were drawn through the solution of the polymer coating at a rate of 1 to 2 meters/second into an infrared dying oven of approximately 1 meter in length at about 100° C. The objects were completely covered indicating the application of a substantially uniform coating. This process was done according to the standard procedures in U.S. Pat. No. 7,442,205, Stents and methods for preparing stents from wires having hydrogel coating layers thereon. […]
Imaging of the objects implanted according to example 6 was performed 24 hours after implantation using an intra-operative clinical multispectral fluorescence camera (T3-imaging system, SurgOptix BV, Groningen, The Netherlands) and the IVIS Spectrum (excitation: 710 nm, emission: 800 nm, acquisition time 5 s, binning 4, F-stop 2, FOV 21.2).
The results obtained from the IVIS Spectrum and IVIS Lumina II were analyzed with Living Image 4.2. […] Signal intensity was determined by drawing regions of interests (ROI's) and measuring average counts in these regions. […]

## CC1(C)C(=CC=C2CCCC(C=CC3=[N+](CCCCCC(=O)[O-])c4ccc(S(=O)(=O)[O-])cc4C3(C)C)=C2Oc2ccc(S(=O)(=O)[O-])cc2)N(CCCCS(=O)(=O)[O-])c2ccc(S(=O)(=O)[O-])cc21.[Na+].[Na+].[Na+].[Na+] [IRDye 800CW]
  near infrared signal (net counts, background corrected): 1×10^5±4.2×10^4 counts
